Reference: ChEMBL document CHEMBL4270493, “Recent updates on third generation EGFR inhibitors and emergence of fourth generation EGFR inhibitors to combat C797S resistance” (Eur J Med Chem, 2017)

Assays:
Homo sapiens [1] = species on record: Homo sapiens; assay: Antitumor activity in patient with EGFR T790M mutant NSCLC assessed as objective response rate at 500 mg BID during phase 1/2 study; type: functional
Homo sapiens [2] = species on record: Homo sapiens; assay: Antitumor activity in patient with EGFR T790M mutant NSCLC assessed as disease control rate at 500 mg BID during phase 1/2 study; type: functional
Homo sapiens [3] = species on record: Homo sapiens; assay: Antitumor activity in patient with EGFR T790M mutant negative NSCLC assessed as overall response rate at 500 mg BID during phase 1/2 study; type: functional
Homo sapiens [4] = species on record: Homo sapiens; assay: Toxicity in patient with EGFR T790M mutant NSCLC assessed as induction of grade 3 hyperglycemia at 500 mg BID during phase 1/2 study; type: organism-based; settings: in vivo
Homo sapiens [5] = species on record: Homo sapiens; assay: Toxicity in patient with EGFR T790M mutant NSCLC assessed as induction of grade 3 QTc prolongation at 500 mg BID during phase 1/2 study; type: organism-based; settings: in vivo
Homo sapiens [6] = species on record: Homo sapiens; assay: Toxicity in patient with EGFR T790M mutant NSCLC assessed as drug discontinuation rate at 500 mg BID during phase 1/2 study; type: organism-based; settings: in vivo

C=CC(=O)Nc1cccc(Nc2nc(Nc3ccc(N4CCN(C(C)=O)CC4)cc3OC)ncc2C(F)(F)F)c1 [ROCILETINIB]
Activity (Homo sapiens [1]): 60%
Activity (Homo sapiens [2]): 90%
Activity (Homo sapiens [3]): 37%
Activity (Homo sapiens [4]): 17%
Activity (Homo sapiens [5]): 2.5%
Activity (Homo sapiens [6]): 2.5%
